This note sets out measurements from the OPERA property sets (Mansouri et al. 2018).

Molecules are shown by their SMILES.

Conditions in one data set: not given
As to `CC(=O)Nc1ccc(OC(=O)c2ccccc2O)cc1`, the melting point came to 187 °C.

For the compound `Oc1ccccc1`, the boiling point was 182 °C, the log10 Henry constant (atm·m³/mol) is -6.48, the log10 Koc (L/kg) was 1.43 and the log10 vapour pressure (mmHg) is -0.456. Moreover, the melting point stood at 40.9 °C and the ready biodegradability result was “readily biodegradable”.

With `CCCCCCCC/C=C\CCCCCCCC#N`, the melting point was -1 °C.

`O=C1NN(c2ccccc2)C(=O)C1c1ccccc1` (stereo not given) came in with a melting point of 234 °C.

Compound `CCCCOCCOCCCC` returned a boiling point of 203 °C, a log10 vapour pressure (mmHg) of -1.05 and a melting point of -69.1 °C.

In turn, `CC(C)OC(=O)COc1ccc(Cl)cc1Cl` had a log10 vapour pressure (mmHg) of -3.63 and a melting point of 5 °C.

The compound `Cc1cc(O)c(Cl)cc1Cl` yielded a boiling point of 234 °C and a melting point of 73 °C.

With `CCOC(=O)C(Cl)CCl` (stereo not given), the boiling point was determined as 184 °C.

Take `CCc1oc2ccccc2c1C(=O)c1cc(Br)c(O)c(Br)c1`: the melting point is 151 °C.

For the compound `CCc1cnc2ccccc2c1`, the boiling point was 266 °C.

For the compound `CC(C)(Cl)CCCl`, the boiling point was 147 °C.

Consider `O=[N+]([O-])c1ccc2c(c1)NCC2`, for which the melting point was determined as 68 °C.

`Clc1cccc2cc3ccccc3cc12` returned a melting point of 83.5 °C.

In turn, `O=C(O)c1ccc(Cl)cc1[N+](=O)[O-]` had a melting point of 144 °C.

Take `CCN1C(=O)OC(C)(C)C1=O`: the melting point came out at 76.5 °C.

Compound `COc1cccc2cccnc12` displayed a boiling point of 283 °C and a melting point of 49.5 °C.

With `C/C(=C(\CCOC(=O)c1ccccc1)SS/C(CCOC(=O)c1ccccc1)=C(/C)N(C=O)Cc1cnc(C)nc1N)N(C=O)Cc1cnc(C)nc1N`, the melting point is 146 °C.

Take `C=CC(C)(CCC=C(C)C)OC(=O)C(C)C` (stereo not given): the boiling point was 229 °C.

Take `O=C(O)CN(CCO)CC(=O)O`: the melting point was found to be 178 °C.

In turn, `CC(C)(C)c1ccccn1` returned a boiling point of 170 °C and a melting point of -33 °C.

`CC=CCCCC`: the log10 vapour pressure (mmHg) was 1.68.

Regarding `C=C[N+](=O)[O-]`, the boiling point came out at 98.5 °C and the melting point is -55.5 °C.

Compound `Cc1cc(=O)n(-c2ccccc2)n1C` came in with a boiling point of 319 °C and a melting point of 114 °C.

For `Brc1cccnc1`, the boiling point amounted to 173 °C and the log10 vapour pressure (mmHg) amounted to 0.244.

Consider `O=C1c2ccccc2C(=O)c2c1cc(O)c(O)c2O`, for which the melting point worked out at 313 °C.

Take `O=C(Cc1ccccc1)OC(=O)Cc1ccccc1`: the melting point is 73.3 °C.

In turn, `COS(=O)(=O)Cl` had a boiling point of 134 °C and a melting point of -70 °C.

In turn, `FC(F)(F)c1ccc(Cl)cc1Cl` came in with a boiling point of 178 °C, a log10 vapour pressure (mmHg) of 0.0449 and a melting point of -26 °C.

With `O=C(O)c1ccc(NS(=O)(=O)Cc2ccccc2)cc1`, the melting point stood at 230 °C.

`CC1CCCc2ccccc21` (stereo not given) yielded a boiling point of 221 °C.

Compound `Cc1cc(Cl)ccc1NC(=S)N(C)C` displayed a melting point of 175 °C.

Compound `CCCCCCCCCCCCCCCCCC(=O)OC` returned a boiling point of 370 °C, a log10 vapour pressure (mmHg) of -4.87 and a melting point of 39.1 °C.

In turn, `COC(=O)C=C(C)C` gave a boiling point of 136 °C.

Compound `CN1CCN(CCCN2c3ccccc3Sc3ccccc32)CC1` returned a melting point of 52 °C.

Compound `Nc1nc(N)nc(NC2CC2)n1` registered a log10 Koc (L/kg) of 2.3, a log10 vapour pressure (mmHg) of -8.47 and a melting point of 225 °C.

The compound `CCOC(=O)NN` gave a melting point of 46 °C.

Take `O=C(O)C(O)C(Cl)(Cl)Cl` (stereo not given): the melting point was determined as 125 °C.

In the case of `CC1CCCNC1=O` (stereo not given), the boiling point was determined as 250 °C and the melting point was 55.3 °C.

For the compound `Clc1ccc(Oc2ccccc2)c(Cl)c1`, the log10 vapour pressure (mmHg) was -3.04.

For the compound `CCCCCCCOC(=O)CCCCCC`, the boiling point was 277 °C and the melting point was -33 °C.

`COc1ccccc1N1CCN(CCCNc2cc(=O)n(C)c(=O)n2C)CC1` registered a melting point of 157 °C.

As for `Fc1cc(F)c(F)c(F)c1`, the boiling point amounted to 84.4 °C, the log10 vapour pressure (mmHg) stood at 1.86 and the melting point is -48 °C.

The data set is the same for the next values; noted with them: fish.
Turning to `Oc1ccccc1`, the log10 BCF came out at 1.24.

Regarding `FC(F)(F)c1ccc(Cl)cc1Cl`, the log10 BCF came out at 3.37 and the log10 biotransformation half-life (days) was 1.81.
